Experimental data from patent publication US10624965B2, “Immunotherapy treatments and compositions” (SUSAVION BIOSCIENCES, INC., priority 2014, dated 2020).
Positions of bridges follow the written chain, without caps; N, C: chain ends. Chains are numbered I, II in the order given. No end group written: not given here.

Key:
[1] = in vivo
Source text: (§1) It is important to note that during and after drug administration there was no change in mouse weight or behavior, indicating no overt toxicity related to treatment.

[2] = tested on: serum cytokines and chemokines; conditions: mouse, in vivo
Method: To determine whether the responses in serum proteins would be different in tumor-bearing mice from those in healthy mice, sera were collected from female mice in which breast cancer 4T1 cells had been implanted. After the tumors had grown over a period of 10 to 12 days to a size of ˜500 mm^3, tetravalent svL4 was injected subcutaneously at doses of 0.1 and 1.0 nmol/g. Blood was withdrawn and sera prepared 4 hours after injection. The sera of untreated animals had low levels of cytokines and chemokines at 4 h. With a few proteins, such as IL-1β, IL-2, IL-6 and TNFα, the values were very low in untreated animals and upon treatment with svL4 were increased but still nearly undetectable on the array blots. […] Several cytokines that increased but were still low in amount included GM-CSF, CCL4, IGFBP-1, IL-21, lymphotoxin-α, and IL-17. Major proteins included CCL1, CCL8, CCL28, Endostatin, Fas, HVEM, IL-11, IL-12p70, IL-16, IL-27, IL-28, MIP-2, MMP-9, NOV, Soggy-1, SPARC, TIMP-2, TLR2 and VEGF-B. In some cases, the higher dose caused a higher amount of the protein, whereas with several proteins the amount was lower with the higher dose. […] A number of soluble proteins were identified as cell-surface receptors, such as Fas, HVEM and TLR2, which indicated significant shedding by activated cells. […]

[3] = parameters: species or system mice
Source text: as §1

With “I: VQATQSNQHTPRGGGSKK-NH2 / II: VQATQSNQHTPRGGGSK / III: VQATQSNQHTPRGGGS / IV: VQATQSNQHTPRGGGS (amide I:17-IV:C, I:18-II:C, II:17-III:C) [svL4, [(VQATQSNQHTPRGGGS)2K]2K—NH2]” the “change in mouse weight or behavior (overt toxicity)” value [1] was “no change”, the “irritation or formation of fibrous or granulomatous tissue at injection region” value ([1]; mouse) was “no apparent irritation” and the “pattern typical of a toxic "cytokine storm"” value [2] was “did not occur”. The “binding of peptides to sera (antigenicity)” value [3] was “negative”.
